Experimental findings from patent US20060116419A1, “Nf-kb inhibitors” (priority 2002, published 2006) are described below.

Molecules are shown by their SMILES.

In data set [1] the target is T1, IKK-β (Homo sapiens, UniProt O14920).
T1 construct: GST; made in house
T1 sequence (O14920 1-756): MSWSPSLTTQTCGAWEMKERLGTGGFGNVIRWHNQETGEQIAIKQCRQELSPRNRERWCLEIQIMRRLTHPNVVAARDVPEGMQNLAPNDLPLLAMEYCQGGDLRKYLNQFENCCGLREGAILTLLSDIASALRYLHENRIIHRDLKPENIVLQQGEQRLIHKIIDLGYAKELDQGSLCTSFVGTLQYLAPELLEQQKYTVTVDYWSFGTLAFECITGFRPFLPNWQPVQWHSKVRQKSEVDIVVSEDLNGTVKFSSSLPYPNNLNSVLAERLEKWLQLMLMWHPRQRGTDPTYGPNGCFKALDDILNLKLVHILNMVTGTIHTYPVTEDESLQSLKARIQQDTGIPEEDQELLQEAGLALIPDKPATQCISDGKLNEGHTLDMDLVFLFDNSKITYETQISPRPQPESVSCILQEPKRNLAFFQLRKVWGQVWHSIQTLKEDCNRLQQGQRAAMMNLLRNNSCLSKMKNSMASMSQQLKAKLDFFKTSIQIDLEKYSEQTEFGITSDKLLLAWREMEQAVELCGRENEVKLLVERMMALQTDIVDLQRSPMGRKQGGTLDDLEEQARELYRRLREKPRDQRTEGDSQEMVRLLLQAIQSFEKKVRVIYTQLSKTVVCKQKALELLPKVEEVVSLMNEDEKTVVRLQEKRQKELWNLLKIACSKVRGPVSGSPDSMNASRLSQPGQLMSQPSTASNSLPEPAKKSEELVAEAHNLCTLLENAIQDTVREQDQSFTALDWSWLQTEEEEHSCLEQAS
The data set can be described thus: IKK-β kinase assay (phosphorylation of N-terminal fragment of IκB-α). The data set is classed as biochemical.
Procedure: IKK-β was expressed as a GST-tagged protein, and its activity was assessed in a 96-well scintillation proximity assay (SPA). Briefly, IKK-β was diluted in assay buffer as described above (20 nM final), with various concentrations of compound or DMSO vehicle, 240 nM ATP and 200 nCi [γ-^33P]-ATP (10 mCi/mL, 2000 Ci/mmol; NEN Life Science Products, Boston, Mass.). The reaction was started with the addition of a biotinylated peptide comprising amino acids 15-46 of IκB-α (American Peptide) to a final concentration of 2.4 μM, in a total volume of 50 uL. The sample incubated for one hour a 30° C., followed by the addition of 150 uL of stop buffer (PBS w/o Ca^2+, Mg^2+, 0.1% Triton X-100 (v/v), 10 mM EDTA) containing 0.2 mg streptavidin-coated SPA PVT beads (Amersham Pharmacia Biotech, Piscataway, N.J.). The sample was mixed, incubated for 10 min. at room temperature, centrifuged (1000×g, 2 minutes), and measured on a Hewlett-Packard TopCount.

For data set [2], the system named is IκB-α. The data set can be described thus: Degradation of IκB-α in cells activated with pro-inflammatory stimuli (Western blot). As to conditions: human monocytes and other mammalian cells; activation with pro-inflammatory stimuli (e.g. TNF-α, LPS). It counts as cell-based. Here is the method:
NF-κB activity may also be measured in an electrophoretic mobility shift assay (EMSA) to assess the presence of NF-κB protein in the nucleus. The cells of interest are cultured to a density of 1×10^6/mL. The cells are harvested by centrifugation, washed in PBS without Ca^2+ and Mg^2+ and resuspended in PBS with Ca^2+ and Mg^2+ at 1×10^7 cells/mL. To examine the effect of compound on the activation of NF-κB, the cell suspensions are treated with various concentrations of drug or vehicle (DMSO, 0.1%) for 30 min. at 37° C. prior to stimulation with TNF-α (5.0 ng/mL) for an additional 15 min. Cellular and nuclear extracts are prepared follows. Briefly, at the end of the incubation period the cells (1×10^7 cells) are washed 2× in PBS without Ca^2+ and Mg^2+. The resulting cell pellets are resuspended in 20 uL of Buffer A (10 mM Hepes (pH 7.9), 10 mM KCl, 1.5 mM MgCl2, 0.5 mM dithiothreitol (DTT) and 0.1% NP-40) and incubated on ice for 10 min. […] All samples are stored at −80° C. until analyzed. The protein concentration of the extracts is determined according to the method of Bradford (Bradford, 1976) with BioRad reagents.
The effect of compounds on the phosphorylation of IκB may be monitored in a Western blot. […] Immunoreactive bands are detected using the Enchanced Chemiluminescence (ECL) assay system (Amersham Corp., Arlington Heights, Ill.).
In general terms: Immunoblotting shows a protein as a band on a membrane.

Data set [3] has as its system NF-κB. In words: Nuclear translocation of NF-κB in activated cells (EMSA). The data set is classed as cell-based. The note with it: human monocytes and other mammalian cells; activation with pro-inflammatory stimuli (e.g. TNF-α, LPS). As to the method:
NF-κB activity may also be measured in an electrophoretic mobility shift assay (EMSA) to assess the presence of NF-κB protein in the nucleus. The cells of interest are cultured to a density of 1×10^6/mL. The cells are harvested by centrifugation, washed in PBS without Ca^2+ and Mg^2+ and resuspended in PBS with Ca^2+ and Mg^2+ at 1×10^7 cells/mL. To examine the effect of compound on the activation of NF-κB, the cell suspensions are treated with various concentrations of drug or vehicle (DMSO, 0.1%) for 30 min. at 37° C. prior to stimulation with TNF-α (5.0 ng/mL) for an additional 15 min. Cellular and nuclear extracts are prepared follows. Briefly, at the end of the incubation period the cells (1×10^7 cells) are washed 2× in PBS without Ca^2+ and Mg^2+. The resulting cell pellets are resuspended in 20 uL of Buffer A (10 mM Hepes (pH 7.9), 10 mM KCl, 1.5 mM MgCl2, 0.5 mM dithiothreitol (DTT) and 0.1% NP-40) and incubated on ice for 10 min. The nuclei are pelleted by microcentrifugation at 3500 rpm for 10 min at 4° C. […] All samples are stored at −80° C. until analyzed. The protein concentration of the extracts is determined according to the method of Bradford (Bradford, 1976) with BioRad reagents.
The effect of compounds on transcription factor activation is assessed in an electrophoretic mobility shift assay (EMSA) using nuclear extracts from treated cells as described above. […]
For orientation: Mobility shift assays separate free from complexed probe on a gel.

In data set [4] the test system is LPS-stimulated human monocytes. The data set can be described thus: Pro-inflammatory mediator production from LPS-stimulated human monocytes. The data set is classed as cell-based. Here is the method:
(§1) Effect of IKK-β inhibition on human monocyte stimulated eicosanoid and cytokine production was assessed as follows: Monocytes were isolated from heparinized whole blood by double gradient centrifugation as previously described. Isolated monocyte enriched PBMCs were then adhered to 24 well culture plates at 2×10^6 cells/mL in RPMI 1640 10% FBS (Hyclone, Logan, Utah) for 2 h. to further enrich the monocyte population. The media was then removed, cells washed once with RPMI 1640, and 1 mL RPMI 1640 10% FBS was added to the wells. Test compounds are added to the wells with a final vehicle concentration of 0.05% DMSO. Monocytes were activated by the addition of 200 ng/mL endotoxin (LPS; E. coli serotype 026:B6)(Sigma, St. Louis, Mo.) and incubated for 24 hrs. Cell-free supernates were analyzed by ELISA for TNF-α (EIA developed at SB), PGE2 (Cayman Chemical, Ann Arbor, Mich.), and IL-8 and IL-6 Biosource International, Camarillo, Calif.). Viability of the cells was determined by trypan blue exclusion.

Data set [5] deals with human primary synovial fibroblasts. The data set can be described thus: Mediator production by stimulated human primary synovial fibroblasts. The data set is classed as cell-based. Here is the method:
The effect of IKK-β inhibitors on primary synovial fibroblast mediator production was assesses as follows: Primary cultures of human RSF were obtained by enzymatic digestion of synovium obtained from adult patients with rheumatoid arthritis as previously described (Roshak et al., 1996b). Cells were cultured in Earl's Minimal Essential Medium (EMEM) which contained 10% fetal bovine serum (FBS), 100 units/ml penicillin and 100 μg/ml streptomycin (GIBCO, Grand Island, N.Y.), at 37° C. and 5% CO2. Cultures were used at passages 4 through 9 in order to obtain a more uniform type B fibroblast population. For some studies, fibroblasts were plated at 5×10^4 cells/mL in 16 mm (diameter) 24 well plates (Costar, Cambridge, Mass.). Cells (70-80% confluence) were exposed to IL-1β (1 ng/mL) (Genzyme, Cambridge, Mass.) for the designated time. Drugs in DMSO vehicle (1%) were added to the cell cultures 15 minutes prior to the addition of IL-1. Studies were conducted 3-4 times using synovial cells from different donors. RSF cellular extracts were prepared from cells treated as described above. Briefly, human RSF were removed by trypsin/EDTA, washed, and harvested by centrifugation. Cellular extracts were prepared as previously described (Dignam et al., 1983; Osborn, et al., 1989). Briefly, at the end of the incubation period the cells (1×10^7 cells) were washed 2× in PBS without Ca^2+ and Mg^2+. […]

A short description of data set [6]: Oral bioavailability in rat. It counts as in vivo.
Data set [7] is described as follows: Oral bioavailability in mouse. It counts as in vivo.
A short description of data set [8]: In vivo DMPK profile in preclinical species. The note with it: preclinical species tested, compared with analog lacking the 4′-F group.
Data set [9] concerns IL-8 production. In words: Inhibition of IL-8 production through inhibition of NF-κB. The note with it: through the inhibition of NF-κB. The data set is classed as cell-based. Here is the method:
as §1

In the case of `NC(=O)Nc1sc(-c2ccc(F)cc2)cc1C(N)=O` [Formula I, 5-(4-fluoro-phenyl)-2-ureido-thiophene-3-carboxylic acid amide], the “inhibition of phosphorylation of the N-terminal fragment of IκB-α by IKK-β” value in [1] is “inhibit the phosphorylation of the N-terminal fragment of IκB-α by IKK-β”. The “IKK-2 inhibitory activity relative to the analog lacking the 4′-F group” value in [1] (compared with analog lacking the 4′-F group) is “comparable IKK-2 inhibitory activity”. For the same molecule, the “degradation of IκB-α” value in data set [2] is “blocks the degradation of IκB-α”. Further, in data set [3], the “nuclear translocation of NF-κB” value is on record as “blocks”. Moreover, the pro-inflammatory mediator production entry in data set [4] and in data set [5] was “inhibits pro-inflammatory mediator production” throughout. The oral bioavailability entry in data set [6] and in [7] was “orally bioavailable” throughout. Moreover, the “DMPK profile relative to the analog lacking the 4′-F group” value in data set [8] is given as “significantly improved DMPK profile”. Also, the “inhibition of IL-8 production” value in data set [9] was “has been demonstrated”.
